We go through 26 molecules from ChEMBL document CHEMBL4007428, “Modulating the selectivity of matriptase-2 inhibitors with unnatural amino acids” (Eur J Med Chem, 2017).

Bounds are passed on as bounds.

Data set [1] has as its target T1, Suppressor of tumorigenicity 14 protein (Homo sapiens, UniProt Q9Y5Y6).
T1 sequence (Q9Y5Y6 whole entry): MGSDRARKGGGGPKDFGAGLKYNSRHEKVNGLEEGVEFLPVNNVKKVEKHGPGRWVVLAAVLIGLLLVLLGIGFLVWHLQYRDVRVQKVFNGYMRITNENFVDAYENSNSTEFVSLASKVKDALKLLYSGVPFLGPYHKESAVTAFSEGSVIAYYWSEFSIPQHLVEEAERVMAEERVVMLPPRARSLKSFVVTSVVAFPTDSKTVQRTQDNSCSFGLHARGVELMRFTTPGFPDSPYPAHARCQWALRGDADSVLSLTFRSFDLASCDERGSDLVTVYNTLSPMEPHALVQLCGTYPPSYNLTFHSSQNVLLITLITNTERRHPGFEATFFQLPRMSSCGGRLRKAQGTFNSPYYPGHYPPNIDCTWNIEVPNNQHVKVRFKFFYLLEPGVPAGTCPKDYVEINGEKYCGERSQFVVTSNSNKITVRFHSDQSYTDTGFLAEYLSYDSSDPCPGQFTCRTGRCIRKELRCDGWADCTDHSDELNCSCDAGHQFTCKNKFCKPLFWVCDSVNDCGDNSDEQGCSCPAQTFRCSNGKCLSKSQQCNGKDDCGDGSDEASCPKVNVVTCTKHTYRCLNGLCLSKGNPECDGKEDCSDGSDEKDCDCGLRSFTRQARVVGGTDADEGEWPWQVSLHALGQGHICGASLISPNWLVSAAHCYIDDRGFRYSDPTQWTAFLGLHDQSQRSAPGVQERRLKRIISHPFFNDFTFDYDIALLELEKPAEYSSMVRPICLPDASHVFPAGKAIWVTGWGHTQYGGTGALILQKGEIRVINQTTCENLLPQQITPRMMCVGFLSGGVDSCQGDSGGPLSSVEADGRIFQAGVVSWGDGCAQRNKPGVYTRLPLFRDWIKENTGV
Description: Inhibition of recombinant human matriptase (596 to 855 residues) expressed in Escherichia coli using Boc-Gln-Ala-ArgAMC as substrate measured for 1200 mins by fluorescence assay

The target of data set [2] is T2, Transmembrane protease serine 6 (Homo sapiens, UniProt Q8IU80).
T2 sequence (Q8IU80 whole entry): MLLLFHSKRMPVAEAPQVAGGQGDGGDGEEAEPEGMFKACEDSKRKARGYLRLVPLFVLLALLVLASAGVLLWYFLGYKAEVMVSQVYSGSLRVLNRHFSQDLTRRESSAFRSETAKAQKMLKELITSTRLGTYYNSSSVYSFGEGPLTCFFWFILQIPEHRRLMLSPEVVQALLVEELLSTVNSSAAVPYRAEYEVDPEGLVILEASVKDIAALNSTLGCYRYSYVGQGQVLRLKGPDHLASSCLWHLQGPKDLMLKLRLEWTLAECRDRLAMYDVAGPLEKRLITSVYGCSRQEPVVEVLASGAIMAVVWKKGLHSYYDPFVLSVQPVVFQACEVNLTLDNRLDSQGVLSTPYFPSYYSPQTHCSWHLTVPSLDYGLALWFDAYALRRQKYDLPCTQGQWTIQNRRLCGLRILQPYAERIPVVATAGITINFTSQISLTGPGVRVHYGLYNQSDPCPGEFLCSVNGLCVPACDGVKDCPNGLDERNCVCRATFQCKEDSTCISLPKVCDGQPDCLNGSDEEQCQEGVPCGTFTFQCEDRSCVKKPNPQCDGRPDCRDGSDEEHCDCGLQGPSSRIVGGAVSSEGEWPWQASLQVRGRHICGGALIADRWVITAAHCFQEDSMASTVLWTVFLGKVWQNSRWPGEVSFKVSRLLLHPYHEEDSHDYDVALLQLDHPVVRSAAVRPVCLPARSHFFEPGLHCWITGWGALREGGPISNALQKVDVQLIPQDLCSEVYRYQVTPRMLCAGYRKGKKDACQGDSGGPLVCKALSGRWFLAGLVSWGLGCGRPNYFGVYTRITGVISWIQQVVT
Briefly: Inhibition of recombinant human C-terminal V5-His-tagged matriptase-2 expressed in Drosophila S2 cells using Boc-Gln-Ala-ArgAMC as substrate measured for 1200 mins by fluorescence assay.

Data set [3] is filed under the species Homo sapiens. Briefly: Selectivity ratio of Ki for recombinant human matriptase (596 to 855 residues) expressed in Escherichia coli to Ki for recombinant human C-terminal V5-His-tagged matriptase-2 expressed in Drosophila S2 cells.
Data set [4] in a line: Stability in mouse plasma assessed as parent compound remaining after 24 hrs. The format is ADME, cell-free. As to conditions: read-out: Stability.

One may read the Ki as the equilibrium dissociation constant of an inhibitor or competing ligand from its target. As to `N=C(N)NCCC[C@H](NC(=O)[C@H](Cc1c[nH]c2ccccc12)NC(=O)C(Cc1ccc(O)cc1)NC(=O)[C@@H](N)Cc1ccc(O)cc1)C(=O)c1nc2ccccc2s1` (single isomer, unassigned), the inhibition constant (Ki) in data set [1] came to 5.6 nM; in data set [2], 3.1 nM. Also, in data set [3], the Ratio Ki was found to be 2.

Take `CCC[C@H](NC(=O)[C@H](CCc1ccccc1)NC(=O)CCc1ccccc1)C(=O)N[C@@H](CCCNC(=N)N)C(=O)c1nc2ccccc2s1`: the Ki came to 26 nM in data set [1] and 2.3 nM in data set [2]. The Ratio Ki in data set [3] stood at 11.

In the case of `N=C(N)NCCC[C@H](NC(=O)[C@H](Cc1ccc(O)cc1)NC(=O)C(Cc1ccc(O)cc1)NC(=O)[C@@H](N)Cc1ccc(O)cc1)C(=O)c1nc2ccccc2s1` (single isomer, unassigned), the inhibition constant Ki in data set [1] was 7 nM; in data set [2], 1.1 nM. Besides, in data set [3], the Ratio Ki came to 6.

On to `CC[C@@H](C)[C@H](NC(=O)[C@H](CCc1ccccc1)NC(=O)CCc1ccccc1)C(=O)N[C@@H](CCCNC(=N)N)C(=O)c1nc2ccccc2s1`, for which the Ki in data set [1] stood at 51 nM; in data set [2], 2.6 nM. Moreover, the Ratio Ki in data set [3] was 20.

Regarding `CC(C)[C@H](NC(=O)[C@H](Cc1ccccc1)NC(=O)[C@@H](N)Cc1ccc(O)cc1)C(=O)N[C@@H](CCCNC(=N)N)C(=O)c1nc2ccccc2s1`, the inhibition constant Ki is 63 nM in data set [1] and 9 nM in data set [2]. For the same molecule, the Ratio Ki in data set [3] stood at 7.

Regarding `CC(C)[C@H](NC(=O)C(Cc1ccc(O)cc1)NC(=O)CCc1ccccc1)C(=O)N[C@@H](CCCNC(=N)N)C(=O)c1nc2ccccc2s1` (single isomer, unassigned), the Ki was found to be 43 nM in data set [1] and 1.74 nM in data set [2]. The Ratio Ki in data set [3] was determined as 25.

Turning to `CC(C)[C@H](NC(=O)C(Cc1ccc(O)cc1)NC(=O)[C@@H](N)Cc1ccc(O)cc1)C(=O)N[C@@H](CCCNC(=N)N)C(=O)c1nc2ccccc2s1` (single isomer, unassigned), in data set [3], the Ratio Ki was determined as 12. In addition, the remaining at 24 h in data set [4] was 0%.

Take `CC(C)(C)[C@H](NC(=O)[C@H](CCc1ccccc1)NC(=O)CCc1ccccc1)C(=O)N[C@@H](CCCNC(=N)N)C(=O)c1nc2ccccc2s1`: the inhibition constant (Ki) was 15000 nM in data set [1] and 560 nM in data set [2]. Further, the Ratio Ki in data set [3] amounted to 27.

`C[C@H](O)[C@H](NC(=O)[C@H](CCc1ccccc1)NC(=O)CCc1ccccc1)C(=O)N[C@@H](CCCNC(=N)N)C(=O)c1nc2ccccc2s1`: the Ki in data set [1] was found to be 200 nM; in data set [2] it was 3.1 nM. The Ratio Ki in data set [3] came out at 64. Moreover, in data set [4], the remaining at 24 h was more than 75%.

Take `CC(C)[C@@H](NC(=O)[C@H](CCc1ccccc1)NC(=O)CCc1ccccc1)C(=O)N[C@@H](CCCNC(=N)N)C(=O)c1nc2ccccc2s1`: the results for the inhibition constant (Ki) in data set [1] and in data set [2] were 240 nM and 7 nM, respectively. In data set [3], the Ratio Ki was found to be 34.

Take `N=C(N)NCCC[C@H](NC(=O)[C@@H](NC(=O)C(Cc1ccc(O)cc1)NC(=O)CCc1ccccc1)C(c1ccccc1)c1ccccc1)C(=O)c1nc2ccccc2s1` (single isomer, unassigned): the results for the Ki in data set [1] and in data set [2] were 1380 nM and 340 nM, respectively. Further, in data set [3], the Ratio Ki is 4.

Take `N=C(N)NCCC[C@H](NC(=O)[C@H](Cc1cccs1)NC(=O)C(Cc1ccc(O)cc1)NC(=O)[C@@H](N)Cc1ccc(O)cc1)C(=O)c1nc2ccccc2s1` (single isomer, unassigned): the Ki in data set [1] amounted to 19 nM; in data set [2], 6 nM. The Ratio Ki in data set [3] amounted to 3.

Take `CC(C)[C@H](NC(=O)[C@H](CCc1ccccc1)NC(=O)CCc1ccccc1)C(=O)N[C@@H](CCCNC(=N)N)C(=O)c1nc2ccccc2s1`: the Ki turned out to be 65 nM in data set [1] and 2.1 nM in data set [2]. Moreover, the Ratio Ki in data set [3] was found to be 31.

With `CC(C)[C@H](NC(=O)[C@H](Cc1ccc(OCc2ccccc2)cc1)NC(=O)CCc1ccccc1)C(=O)N[C@@H](CCCNC(=N)N)C(=O)c1nc2ccccc2s1`, the Ki in data set [1] was 71 nM; in data set [2], 3.5 nM. In addition, the Ratio Ki in data set [3] worked out at 20.

On to `CC(C)C[C@H](NC(=O)[C@H](CCc1ccccc1)NC(=O)CCc1ccccc1)C(=O)N[C@@H](CCCNC(=N)N)C(=O)c1nc2ccccc2s1`, for which the values for the inhibition constant Ki in data set [1] and in data set [2] were 120 nM and 5.2 nM, respectively. Moreover, the Ratio Ki in data set [3] was 23.

Turning to `CC(C)[C@H](NC(=O)[C@H](Cc1cccc(Cl)c1)NC(=O)[C@@H](N)Cc1ccc(O)cc1)C(=O)N[C@@H](CCCNC(=N)N)C(=O)c1nc2ccccc2s1`, the inhibition constant (Ki) was 34 nM in data set [1] and 5 nM in data set [2]. For the same molecule, the Ratio Ki in data set [3] stood at 7.

On to `CC[C@H](C)[C@H](NC(=O)[C@H](CCc1ccccc1)NC(=O)CCc1ccccc1)C(=O)N[C@@H](CCCNC(=N)N)C(=O)c1nc2ccccc2s1`, for which the inhibition constant (Ki) in data set [1] was found to be 230 nM; in data set [2] it was 4 nM. The Ratio Ki in data set [3] came to 58.

For the molecule `CC[C@@H](C)[C@@H](NC(=O)[C@H](CCc1ccccc1)NC(=O)CCc1ccccc1)C(=O)N[C@@H](CCCNC(=N)N)C(=O)c1nc2ccccc2s1`, the Ki in data set [1] amounted to 150 nM; in data set [2], 5 nM. Further, in data set [3], the Ratio Ki was determined as 30.

Regarding `N=C(N)NCCC[C@H](NC(=O)[C@H](Cc1cscn1)NC(=O)C(Cc1ccc(O)cc1)NC(=O)[C@@H](N)Cc1ccc(O)cc1)C(=O)c1nc2ccccc2s1` (single isomer, unassigned), the Ki came out at 20 nM in data set [1] and 13 nM in data set [2]. Also, the Ratio Ki in data set [3] was determined as 2.

On to `N=C(N)NCCC[C@H](NC(=O)[C@H](Cc1ccc(O)c(O)c1)NC(=O)C(Cc1ccc(O)cc1)NC(=O)[C@@H](N)Cc1ccc(O)cc1)C(=O)c1nc2ccccc2s1` (single isomer, unassigned), for which the Ki in data set [1] was 12 nM; in data set [2], 5 nM. Moreover, the Ratio Ki in data set [3] was 2.

`N=C(N)NCCC[C@H](NC(=O)[C@H](Cc1c[nH]cn1)NC(=O)C(Cc1ccc(O)cc1)NC(=O)[C@@H](N)Cc1ccc(O)cc1)C(=O)c1nc2ccccc2s1` (single isomer, unassigned): the Ki in data set [1] was found to be 48 nM; in data set [2], 56 nM. In addition, in data set [3], the Ratio Ki came out at 0.9.

Turning to `CC(C)CCC(=O)NC(Cc1ccc(O)cc1)C(=O)N[C@H](C(=O)N[C@@H](CCCNC(=N)N)C(=O)c1nc2ccccc2s1)C(C)C` (single isomer, unassigned), the Ki stood at 28 nM in data set [1] and 6 nM in data set [2]. For the same molecule, in data set [3], the Ratio Ki is 5.

For `CC[C@H](C)[C@@H](NC(=O)[C@H](CCc1ccccc1)NC(=O)CCc1ccccc1)C(=O)N[C@@H](CCCNC(=N)N)C(=O)c1nc2ccccc2s1`, the Ki in data set [1] was found to be 12000 nM; in data set [2], 690 nM. Moreover, in data set [3], the Ratio Ki stood at 17.

On to `C[C@@H](O)[C@H](NC(=O)[C@H](CCc1ccccc1)NC(=O)CCc1ccccc1)C(=O)N[C@@H](CCCNC(=N)N)C(=O)c1nc2ccccc2s1`, for which the inhibition constant Ki in data set [1] was 120 nM; in data set [2], 5.3 nM. The Ratio Ki in data set [3] is 23.

Turning to `N=C(N)NCCC[C@H](NC(=O)[C@H](Cc1ccc2ccccc2c1)NC(=O)C(Cc1ccc(O)cc1)NC(=O)[C@@H](N)Cc1ccc(O)cc1)C(=O)c1nc2ccccc2s1` (single isomer, unassigned), in data set [2], the Ki stood at 5.3 nM.

Regarding `CC(C)[C@H](NC(=O)[C@H](Cc1ccc(O)cc1)NC(=O)CC12CC3CC(CC(C3)C1)C2)C(=O)N[C@@H](CCCNC(=N)N)C(=O)c1nc2ccccc2s1`, the Ki in data set [1] was 39 nM; in data set [2], 6 nM. The Ratio Ki in data set [3] worked out at 6.
